{
  "source": "patent US20160137639A1",
  "about": "“TRIAZOLE-ISOXAZOLE COMPOUND AND MEDICAL USE THEREOF” (JAPAN TOBACCO INC., priority 2012, published 2016)",
  "key": {"human RORγ": {"molecular_target": "T1, human RORγ (Homo sapiens, UniProt P51449)", "T1 construct": "human, NM_005060.3 and from Ser253 to Lys518; expressed in transfected cells; host or cells: CHO cells (transient co-transfection with pG5-Luc reporter)", "T1 sequence (P51449 253-518)": "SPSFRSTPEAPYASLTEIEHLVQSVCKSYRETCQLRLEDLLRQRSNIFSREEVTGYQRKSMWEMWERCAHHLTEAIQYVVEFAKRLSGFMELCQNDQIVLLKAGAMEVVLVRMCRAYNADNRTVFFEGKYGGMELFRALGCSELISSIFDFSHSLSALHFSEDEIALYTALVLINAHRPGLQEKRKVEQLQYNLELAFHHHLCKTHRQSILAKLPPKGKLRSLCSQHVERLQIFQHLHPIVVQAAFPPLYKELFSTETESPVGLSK", "assay": "Luciferase reporter gene assay of inhibitory effect against RORγ transcriptional activity (GAL4-hRORγ plasmid in CHO cells)", "format": "cell-based"}, "mouse RORγ": {"molecular_target": "T2, mouse RORγ (Mus musculus, UniProt P51450)", "T2 construct": "mouse, NM_011281.2 and from Ile251 to Lys516; expressed in transfected cells; host or cells: CHO cells (transient co-transfection with pG5-Luc reporter)", "T2 sequence (P51450 251-516)": "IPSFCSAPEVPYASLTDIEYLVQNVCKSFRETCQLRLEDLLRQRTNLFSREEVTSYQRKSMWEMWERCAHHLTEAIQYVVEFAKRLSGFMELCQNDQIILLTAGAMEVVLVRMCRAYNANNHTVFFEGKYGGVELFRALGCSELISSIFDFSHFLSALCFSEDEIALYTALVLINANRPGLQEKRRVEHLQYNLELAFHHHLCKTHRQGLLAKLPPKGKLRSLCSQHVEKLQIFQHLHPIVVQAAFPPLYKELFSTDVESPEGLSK", "assay": "Luciferase reporter gene assay of inhibitory effect against RORγ transcriptional activity (GAL4-mRORγ plasmid in CHO cells)", "format": "cell-based", "method_in_brief": "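Readout is intracellular luciferase after 2-day compound exposure (8 concentrations, 0.1% DMSO) in CHO cells expressing GAL4 fused to mouse RORγ LBD residues Ile251–Lys516 plus pG5-Luc reporter. EC50 fitted from %-of-control; points showing resazurin-detected cytotoxicity dropped.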"}},
  "note": "Where two headings read alike, the source gives them in different places.",
  "data": [
    {"smiles": "CC(C)CCc1nnc(CCC(=O)Nc2ccccc2)n1C1CC1", "note": "[Example F-56]", "values": [
      {"measurement": "EC50", "setting": "human RORγ; read-out: LUC EC50 (μM) hRORg", "result": "> 3", "unit": "µM"},
      {"measurement": "EC50", "setting": "mouse RORγ; read-out: LUC EC50 (μM) mRORg", "result": "> 3", "unit": "µM"}
    ]},
    {"smiles": "Cc1ccc(NC(=O)C[C@H](CCC(=O)O)c2nnc([C@H]3C[C@@H](CC(C)(C)C(C)C)C3)n2C2CC2(F)F)c(Cl)c1", "note": "(mixture of isomers) [Example F-714]", "values": [
      {"measurement": "EC50", "setting": "human RORγ; read-out: LUC EC50 hRORg", "result": "< 3", "unit": "µM"},
      {"measurement": "EC50", "setting": "mouse RORγ; read-out: LUC EC50 mRORg", "result": "< 3", "unit": "µM"}
    ]},
    {"smiles": "Cc1c(Cl)cccc1NC(=O)CCc1nnc(CCC(C)(C)C(=O)O)n1C1CC1", "note": "[Example F-226]", "values": [
      {"measurement": "EC50", "setting": "human RORγ; read-out: LUC EC50 (μM) hRORg", "result": "> 3", "unit": "µM"},
      {"measurement": "EC50", "setting": "mouse RORγ; read-out: LUC EC50 (μM) mRORg", "result": "> 3", "unit": "µM"}
    ]},
    {"smiles": "Cc1ccc(NC(=O)C[C@@H](CC(C)(C)O)c2nnc([C@H]3C[C@@H](CC(C)C)C3)n2C2CC2)c(C)c1", "note": "[Example F-598]", "values": [
      {"measurement": "EC50", "setting": "human RORγ; read-out: LUC EC50 hRORg", "result": "> 3", "unit": "µM"},
      {"measurement": "EC50", "setting": "mouse RORγ; read-out: LUC EC50 mRORg", "result": "> 3", "unit": "µM"}
    ]},
    {"smiles": "Cc1ccc(NC(=O)CCc2nnc(CCC3(C)CCCCC3)n2C2CC2)c(C)c1", "note": "[Example F-269]", "values": [
      {"measurement": "EC50", "setting": "human RORγ; read-out: LUC EC50 (μM) hRORg", "result": "< 3", "unit": "µM"},
      {"measurement": "EC50", "setting": "mouse RORγ; read-out: LUC EC50 (μM) mRORg", "result": "< 3", "unit": "µM"}
    ]},
    {"smiles": "Cc1ccc(NC(=O)C[C@H](CCC(=O)O)c2noc3c2C(C)CCC3CCC(C)C)c(Cl)c1", "note": "(single isomer, unassigned) [Example F-694]", "values": [
      {"measurement": "EC50", "setting": "human RORγ; read-out: LUC EC50 hRORg", "result": "< 3", "unit": "µM"},
      {"measurement": "EC50", "setting": "mouse RORγ; read-out: LUC EC50 mRORg", "result": "< 3", "unit": "µM"}
    ]},
    {"smiles": "Cc1ccc(NC(=O)C[C@H](CCCO)c2noc(-c3cc(CC(C)C)[nH]n3)c2C2CC2)c(F)c1", "note": "[Example F-702]", "values": [
      {"measurement": "EC50", "setting": "human RORγ; read-out: LUC EC50 hRORg", "result": "< 3", "unit": "µM"},
      {"measurement": "EC50", "setting": "mouse RORγ; read-out: LUC EC50 mRORg", "result": "< 3", "unit": "µM"}
    ]},
    {"smiles": "CC(=O)N1C[C@@H](C(=O)Nc2ccc(C)cc2C)[C@H](c2nnc([C@H]3C[C@@H](OC(C)C)C3)n2C2CC2)C1", "note": "[Example F-337]", "values": [
      {"measurement": "EC50", "setting": "human RORγ; read-out: LUC EC50 (μM) hRORg", "result": "> 3", "unit": "µM"},
      {"measurement": "EC50", "setting": "mouse RORγ; read-out: LUC EC50 (μM) mRORg", "result": "> 3", "unit": "µM"}
    ]},
    {"smiles": "Cc1ccc(NC(=O)CCc2nnc(-c3ccc(CC(C)C)cc3)n2C2CC2)c(C)c1", "note": "[Example F-404]", "values": [
      {"measurement": "EC50", "setting": "human RORγ; read-out: LUC EC50 (μM) hRORg", "result": "< 3", "unit": "µM"},
      {"measurement": "EC50", "setting": "mouse RORγ; read-out: LUC EC50 (μM) mRORg", "result": "< 3", "unit": "µM"}
    ]},
    {"smiles": "C=CCOc1ccc(-c2nnc(CCC(=O)Nc3ccc(C)cc3C)n2C2CC2)cc1", "note": "[Example F-460]", "values": [
      {"measurement": "EC50", "setting": "human RORγ; read-out: LUC EC50 (μM) hRORg", "result": "> 3", "unit": "µM"},
      {"measurement": "EC50", "setting": "mouse RORγ; read-out: LUC EC50 (μM) mRORg", "result": "> 3", "unit": "µM"}
    ]},
    {"smiles": "CC(C)CCc1nnc(CCC(=O)N[C@H](C)c2ccccc2)n1C1CC1", "note": "[Example F-63]", "values": [
      {"measurement": "EC50", "setting": "human RORγ; read-out: LUC EC50 (μM) hRORg", "result": "> 3", "unit": "µM"},
      {"measurement": "EC50", "setting": "mouse RORγ; read-out: LUC EC50 (μM) mRORg", "result": "> 3", "unit": "µM"}
    ]},
    {"smiles": "COc1cc(C)ccc1CNC(=O)CCc1nnc(CCC2CCCCC2)n1C1CC1", "note": "[Example F-188]", "values": [
      {"measurement": "EC50", "setting": "human RORγ; read-out: LUC EC50 (μM) hRORg", "result": "< 3", "unit": "µM"},
      {"measurement": "EC50", "setting": "mouse RORγ; read-out: LUC EC50 (μM) mRORg", "result": "< 3", "unit": "µM"}
    ]},
    {"smiles": "Cc1ccc(NC(=O)C[C@H](CCO)c2nnc(CCCC(C)(C)C)n2C2CC2)c(C)c1", "note": "[Example F-327]", "values": [
      {"measurement": "EC50", "setting": "human RORγ; read-out: LUC EC50 (μM) hRORg", "result": "< 3", "unit": "µM"},
      {"measurement": "EC50", "setting": "mouse RORγ; read-out: LUC EC50 (μM) mRORg", "result": "< 3", "unit": "µM"}
    ]},
    {"smiles": "Cc1c(NC(=O)CCc2nnc(CCC(C)C)n2C2CC2)cccc1C1CC1", "note": "[Example F-156]", "values": [
      {"measurement": "EC50", "setting": "human RORγ; read-out: LUC EC50 (μM) hRORg", "result": "> 3", "unit": "µM"},
      {"measurement": "EC50", "setting": "mouse RORγ; read-out: LUC EC50 (μM) mRORg", "result": "< 3", "unit": "µM"}
    ]}
  ]
}
